The values that follow come from ChEMBL document CHEMBL6153110, “Peptide Double-Stapling and Arginine N-Glycosylation Triggered the Development of Therapeutic Antimicrobial Peptides Capable of Killing Drug-Resistant Bacteria in Mice” (J Med Chem, 2025).

≈ marks a conversion by molar mass, not a printed value. Starred links: 1 amine or outer side, 2 acyl side, 3 side chain; linkers in the order of their positions; H or OH if unused. Positions of bridges follow the written chain, without caps; N, C: chain ends. Non-standard residues stand in square brackets, D forms with d. Residues, ends and D or L forms follow the SMILES beside them. X1 = N=C(NCCC[C@H](N[*:1])C(=O)[*:2])N[C@@H]1O[C@H](CO)[C@@H](O[C@H]2O[C@H](CO)[C@@H](O[C@H]3O[C@H](CO)[C@@H](O)[C@H](O)[C@H]3O)[C@H](O)[C@H]2O)[C@H](O)[C@H]1O; Arg(Nω-βLac) = N=C(NCCC[C@H](N)C(=O)O)N[C@@H]1O[C@H](CO)[C@@H](O[C@@H]2O[C@H](CO)[C@H](O)[C@H](O)[C@H]2O)[C@H](O)[C@H]1O; X2 = CC(=O)N[C@@H]1[C@@H](O)[C@H](O)[C@@H](CO)O[C@H]1NC(=N)NCCC[C@H](N[*:1])C(=O)[*:2]; S5 = C=CCCC[C@](C)(N)C(=O)O

One data set deals with Klebsiella pneumoniae. The experiment in a line: Antimicrobial activity against Klebsiella pneumoniae ATCC 13883 assessed as growth inhibition measured after 8 hrs incubation by standard broth dilution assay. It counts as functional.
Another data set relates to Staphylococcus aureus. The experiment in a line: Antimicrobial activity against methicillin-resistant Staphylococcus aureus ATCC 43300 assessed as growth inhibition measured after 8 hrs incubation by standard broth dilution assay. It counts as functional.
A further data set deals with Pseudomonas aeruginosa. The experiment in a line: Antimicrobial activity against Pseudomonas aeruginosa ATCC 27853 assessed as growth inhibition measured after 8 hrs incubation by standard broth dilution assay. It counts as functional. In general terms: Broth dilution looks for growth in wells or tubes with falling amounts of substance.
For another data set, the system named is Streptococcus pneumoniae. In words: Antimicrobial activity against Streptococcus pneumoniae ATCC 49619 assessed as growth inhibition measured after 8 hrs incubation by standard broth dilution assay. It counts as functional.
Data set [1] in a line: Hemolytic activity in BALB/c mouse red blood cells assessed as hemolysis incubated for 1 hrs. It counts as toxicity, cell-based, Erythrocyte. To be noted: read-out: HD50.

For `CC(=O)N[C@@H](CC(C)C)C(=O)N[C@@H](CCCCN)C(=O)N[C@@H](CCCNC(=N)N)C(=O)N[C@H](C(=O)N[C@@H](Cc1c[nH]c2ccccc12)C(=O)N[C@@H](CCCCN)C(=O)N[C@@H](CCCNC(=N)N)C(=O)N[C@H](C(=O)N[C@@H](Cc1ccccc1)C(=O)N[C@@H](CCCCN)C(=O)N[C@@H](CC(C)C)C(=O)N[C@@H](CC(C)C)C(=O)N[C@@H](CCCCN)C(=O)N[C@@]1(C)CCC/C=C\CCC[C@@](C)(C(=O)N[C@@H](CC(C)C)C(=O)N[C@@H](CCCCN)C(=O)N[C@@H](CCCCN)C(=O)N2CCC[C@H]2C(=O)N[C@H](C(=O)N[C@@H](CCCNC(=N)N)C(N)=O)C(C)C)NC(=O)[C@H](CCCNC(=N)N)NC(=O)[C@H](Cc2c[nH]c3ccccc23)NC(=O)[C@H](Cc2ccc(O)cc2)NC1=O)C(C)C)C(C)C` (Ac-LKRVWKRVFKLLK[S5]YWR[S5]LKKPVR-NH2; staple (Z) 14-18), the MIC in the data set on Klebsiella pneumoniae is 2.5 µg/mL (≈ 0.773 µM); in the data set on Staphylococcus aureus, 4.9 µg/mL (≈ 1.52 µM); with Pseudomonas aeruginosa it was 5 µg/mL (≈ 1.55 µM); with Streptococcus pneumoniae, 2.4 µg/mL (≈ 0.742 µM). The HC50 at 1 h in data set [1] was determined as 12.2 µg/mL.
The corresponding values for `CC(=O)N[C@@H](CC(C)C)C(=O)N[C@@H](CCCCN)C(=O)N[C@@H](CCCNC(=N)N)C(=O)N[C@H](C(=O)N[C@@H](Cc1c[nH]c2ccccc12)C(=O)N[C@@H](CCCCN)C(=O)N[C@@H](CCCNC(=N)N)C(=O)N[C@H](C(=O)N[C@@H](CCCCN)C(=O)N[C@@H](CCCCN)C(=O)N[C@@H](CC(C)C)C(=O)N[C@@H](CC(C)C)C(=O)N[C@@H](CCCCN)C(=O)N[C@@]1(C)CCC/C=C\CCC[C@@](C)(C(=O)N[C@@H](CC(C)C)C(=O)N[C@@H](CCCCN)C(=O)N[C@@H](CCCCN)C(=O)N2CCC[C@H]2C(=O)N[C@H](C(=O)N[C@@H](CCCNC(=N)N)C(N)=O)C(C)C)NC(=O)[C@H](CCCNC(=N)N)NC(=O)[C@H](Cc2c[nH]c3ccccc23)NC(=O)[C@H](Cc2ccc(O)cc2)NC1=O)C(C)C)C(C)C` (Ac-LKRVWKRVKKLLK[S5]YWR[S5]LKKPVR-NH2; staple (Z) 14-18) are 19.2 µg/mL (≈ 5.97 µM), 4.9 µg/mL (≈ 1.52 µM), 5 µg/mL (≈ 1.56 µM), 2.4 µg/mL (≈ 0.747 µM) and 38 µg/mL.
For `CC(=O)N[C@@H](CC(C)C)C(=O)N[C@@H](CCCCN)C(=O)N[C@@H](CCCNC(=N)N[C@@H]1O[C@H](CO)[C@@H](O[C@@H]2O[C@H](CO)[C@H](O)[C@H](O)[C@H]2O)[C@H](O)[C@H]1O)C(=O)N[C@H](C(=O)N[C@@H](Cc1c[nH]c2ccccc12)C(=O)N[C@@H](CCCCN)C(=O)N[C@@H](CCCNC(=N)N)C(=O)N[C@H](C(=O)N[C@@H](Cc1ccccc1)C(=O)N[C@@H](CCCCN)C(=O)N[C@@H](CC(C)C)C(=O)N[C@@H](CC(C)C)C(=O)N[C@@H](CCCCN)C(=O)N[C@@H](CCCNC(=N)N)C(=O)N[C@@H](Cc1ccc(O)cc1)C(=O)N[C@@H](Cc1c[nH]c2ccccc12)C(=O)N[C@@H](CCCNC(=N)N)C(=O)N[C@@H](CCC(N)=O)C(=O)N[C@@H](CC(C)C)C(=O)N[C@@H](CCCCN)C(=O)N[C@@H](CCCCN)C(=O)N1CCC[C@H]1C(=O)N[C@H](C(=O)N[C@@H](CCCNC(=N)N)C(N)=O)C(C)C)C(C)C)C(C)C` (Ac-LK[Arg(Nω-βLac)]VWKRVFKLLKRYWRQLKKPVR-NH2) the same measures were 38 µg/mL (≈ 10.6 µM), 4.9 µg/mL (≈ 1.36 µM), 5 µg/mL (≈ 1.39 µM), 9.9 µg/mL (≈ 2.76 µM) and 33.8 µg/mL.
For `CC(=O)N[C@@H](CC(C)C)C(=O)N[C@@H](CCCCN)C(=O)N[C@@H](CCCNC(=N)N[C@@H]1O[C@H](CO)[C@@H](O[C@H]2O[C@H](CO)[C@@H](O[C@H]3O[C@H](CO)[C@@H](O)[C@H](O)[C@H]3O)[C@H](O)[C@H]2O)[C@H](O)[C@H]1O)C(=O)N[C@H](C(=O)N[C@@H](Cc1c[nH]c2ccccc12)C(=O)N[C@@H](CCCCN)C(=O)N[C@@H](CCCNC(=N)N)C(=O)N[C@H](C(=O)N[C@@H](Cc1ccccc1)C(=O)N[C@@H](CCCCN)C(=O)N[C@@H](CC(C)C)C(=O)N[C@@H](CC(C)C)C(=O)N[C@@H](CCCCN)C(=O)N[C@@H](CCCNC(=N)N)C(=O)N[C@@H](Cc1ccc(O)cc1)C(=O)N[C@@H](Cc1c[nH]c2ccccc12)C(=O)N[C@@H](CCCNC(=N)N)C(=O)N[C@@H](CCC(N)=O)C(=O)N[C@@H](CC(C)C)C(=O)N[C@@H](CCCCN)C(=O)N[C@@H](CCCCN)C(=O)N1CCC[C@H]1C(=O)N[C@H](C(=O)N[C@@H](CCCNC(=N)N)C(N)=O)C(C)C)C(C)C)C(C)C` (Ac-LK[X1]VWKRVFKLLKRYWRQLKKPVR-NH2) the same measures were 38 µg/mL (≈ 10.1 µM), 2.5 µg/mL (≈ 0.666 µM), 5 µg/mL (≈ 1.33 µM), 16.9 µg/mL (≈ 4.5 µM) and 58.1 µg/mL.
Regarding `CC(=O)N[C@@H]1[C@@H](O)[C@H](O)[C@@H](CO)O[C@H]1NC(=N)NCCC[C@H](NC(=O)[C@H](CCCCN)NC(=O)[C@H](CC(C)C)NC(C)=O)C(=O)N[C@H](C(=O)N[C@@H](Cc1c[nH]c2ccccc12)C(=O)N[C@@H](CCCCN)C(=O)N[C@@H](CCCNC(=N)N)C(=O)N[C@H](C(=O)N[C@@H](Cc1ccccc1)C(=O)N[C@@H](CCCCN)C(=O)N[C@@H](CC(C)C)C(=O)N[C@@H](CC(C)C)C(=O)N[C@@H](CCCCN)C(=O)N[C@@H](CCCNC(=N)N)C(=O)N[C@@H](Cc1ccc(O)cc1)C(=O)N[C@@H](Cc1c[nH]c2ccccc12)C(=O)N[C@@H](CCCNC(=N)N)C(=O)N[C@@H](CCC(N)=O)C(=O)N[C@@H](CC(C)C)C(=O)N[C@@H](CCCCN)C(=O)N[C@@H](CCCCN)C(=O)N1CCC[C@H]1C(=O)N[C@H](C(=O)N[C@@H](CCCNC(=N)N)C(N)=O)C(C)C)C(C)C)C(C)C` (Ac-LK[X2]VWKRVFKLLKRYWRQLKKPVR-NH2), the MIC in the data set with Klebsiella pneumoniae was determined as 38 µg/mL (≈ 10.9 µM); in the data set with Staphylococcus aureus, 2.5 µg/mL (≈ 0.72 µM); with Pseudomonas aeruginosa it was 5 µg/mL (≈ 1.44 µM); in the data set on Streptococcus pneumoniae, 9.9 µg/mL (≈ 2.85 µM). Further, the HC50 at 1 h in data set [1] was 45.2 µg/mL.

As usually defined, the MIC is the lowest concentration found to suppress growth.
